Legend:
Type in all cases: in vivo
Spodoptera frugiperda = Spodoptera frugiperda spray test; conditions: in Zea mays, 168 h, read-out: activity (mortality)
Outline: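 Maize leaf sections were sprayed with compound formulated in acetone/DMF and diluted in water containing 1000 ppm emulsifier. Dried leaves were infested with fall armyworm larvae, and percent mortality was scored after 7 days.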

Rhipicephalus microplus [1] = assay: Rhipicephalus (Boophilus) microplus injection test (BOOPMI Inj); conditions: 168 h, injection into adult engorged female ticks, egg deposition after 7 days, read-out: activity (efficacy: 100% means all eggs are infertile); for pest or weed control at 0.004 mg: application rate 4 μg/tick; for pest or weed control at 0.02 mg: application rate 20 μg/tick
Outline: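 Five engorged adult female R. microplus ticks injected into the abdomen with 1 μL of compound diluted in DMSO, then kept in a climate chamber. Fertile egg deposition checked after 7 days; eggs without visible fertility held until hatching at about 42 days. Efficacy: 100% = all eggs infertile, 0% = all fertile.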

Nezara viridula = Nezara viridula spray test; conditions: in Hordeum vulgare, 96 h, barley plants, larvae, after 4 days; for mortality at 500 g/ha: application rate 500 g/ha; for mortality at 100 g/ha: application rate 100 g/ha
Experimental: Nezara viridula—Spray Test Solvent: 78.0 parts by weight of acetone • • 1.5 parts by weight of dimethylformamide Emulsifier: alkylarylpolyglycol ether
To produce a suitable preparation of active compound, 1 part by weight of active compound is mixed with the stated amount of solvent, and the concentrate is diluted with water, containing an emulsifier concentration of 1000 ppm, to the desired concentration. Further test concentrations are prepared by dilution with emulsifier containing water.
Barley plants (Hordeum vulgare) infested with larvae of the southern green stink bug (Nezara viridula) are sprayed with a test solution containing the desired concentration of the active ingredient.
After 4 days mortality in % is determined. 100% means all the stink bugs have been killed; 0% means none of the stink bugs have been killed.

Rhipicephalus microplus [2] = assay: Rhipicephalus (Boophilus) microplus in-vitro contact test, larval cattle tick, strain Parkhurst (BOOPMI Cont); conditions: application rate 5 μg/cm^2 (=500 g/ha), tick larvae, after 48 hours, read-out: activity (efficacy: 100% means all larvae are dead or moribund)
Outline: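 Acetone solutions dried onto glass tube walls (900 ppm giving 5 μg/cm^2); 20-50 pyrethroid-resistant Parkhurst larvae added per tube and held 48 h at 27° C., 85% relative humidity. Efficacy scored by negative geotaxis as % dead or moribund larvae.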

[3] = system: Musca domestica strain WHO—N; assay: Musca domestica test (MUSCDO surface treatment & contact assay); conditions: exposure 30 minutes, 24 hours after contact, read-out: efficacy (mortality); for mortality at 20 mg/m2: surface concentration 20 mg/m^2, glazed tile; for mortality at 4 mg/m2: surface concentration 4 mg/m^2, glazed tile
Outline: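 Compound dissolved in acetone (2 mg/ml) with 2000 ppm rapeseed oil methyl ester and pipetted onto glazed tile; after acetone evaporation, adult flies exposed to dried surface for 30 minutes. Mortality (%) scored 24 hours after contact.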

Diabrotica balteata = Diabrotica balteata spray test; conditions: 168 h, wheat seeds, larvae, after 7 days, read-out: activity (efficacy: 100% means all seedlings have grown up like in the untreated, uninfected control); for pest or weed control at 32 µg/disc, 100 g/ha: application rate 100 g/ha (=32 μg/well); for pest or weed control at 160 µg/disc, 500 g/ha: application rate 500 g/ha (=160 μg/well)
Outline: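 Wheat seedlings, germinated 1 day on agar, were sprayed with compound in acetone/DMF diluted in water containing emulsifier, then infested with 10-20 Diabrotica balteata larvae. After 7 days efficacy in % was scored: 100% means seedlings grew like the untreated, uninfected control; 0% means none grew.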

Myzus persicae = Myzus persicae oral test; conditions: 120 h, read-out: activity (mortality)
Outline: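 Percent mortality was recorded at day 5, where 0% means no aphids killed. Compound prepared from an acetone concentrate diluted in water and combined with IPL41 medium containing sugar was offered to mixed-stage green peach aphids, which sucked it through a parafilm seal.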

Ctenocephalides felis [4] = assay: Ctenocephalides felis oral test (CTECFE Oral); conditions: 48 h, read-out: activity (mortality)
Outline: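 About 20 unfed adult cat fleas fed through parafilm on cattle blood containing compound (DMSO concentrate diluted in blood to the desired concentration). Blood held at 37 °C, fleas at room temperature. Mortality (%) scored after 2 days.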

Rhipicephalus sanguineus = Rhipicephalus sanguineus in-vitro contact test, adult brown dog ticks (RHIPSA Cont); conditions: 48 h, after 48 hours, read-out: activity (efficacy: 100% means all ticks are dead or moribund); for pest or weed control at 5 µg/cm2, 500 g/ha: application rate 5 μg/cm^2 (=500 g/ha); for pest or weed control at 1 µg/cm2, 100 g/ha: application rate 1 μg/cm^2 (=100 g/ha)
Outline: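 Compound in acetone was coated onto the inner walls of glass tubes and dried by rotation before adult brown dog ticks were exposed. Efficacy was scored at 48 h. Ticks unable to climb away from a 45–50 °C heating plate within 5 min counted as dead or moribund.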

Ctenocephalides felis [5] = assay: Ctenocephalides felis in-vitro contact test, adult cat flea (CTECFE Cont); conditions: application rate 5 μg/cm^2 (=500 g/ha), adult cat fleas, after 48 hours, read-out: activity (efficacy: 100% means all fleas are dead or moribund)
Experimental: Ctenocephalides felis—In-Vitro Contact Tests Adult Cat Flea (CTECFE Cont)
9 mg compound is solved in 1 mL acetone and diluted with acetone to the desired concentration. 250 μL of the test solution is filled in 25 mL glass test tubes and homogeneously distributed on the inner walls by rotation and tilting on a shaking device (2 h at 30 rpm). With a compound concentration of 900 ppm, an inner surface of 44.7 cm^2 and a homogeneous distribution, a dose of 5 μg/cm^2 is achieved.
After the solvent has evaporated, each test tube is filled with 5-10 adult cat fleas (Ctenocephalides felis), closed with a perforated lid and incubated in a lying position at room temperature and relative humidity. After 48 hours efficacy is determined. The fleas are patted on the ground of the tubes and are incubated on a heating plate at 45-50° C. for at most 5 minutes. Immotile or uncoordinated moving fleas, which are not able to escape the heat by climbing upwards, are marked as dead or moribund.
An efficacy of 100% means all fleas are dead or moribund; 0% means no fleas are dead or moribund.

[6] = system: Aedes aegypti strain MONHEIM; assay: Aedes aegypti test (AEDSAE surface treatment & contact assay); conditions: exposure 30 minutes, 24 hours after contact, read-out: efficacy (mortality); for mortality at 4 mg/m2: surface concentration 4 mg/m^2, glazed tile; for mortality at 20 mg/m2: surface concentration 20 mg/m^2, glazed tile
Outline: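 Compound dissolved in acetone (2 mg/ml) with 2000 ppm rapeseed oil methyl ester, pipetted onto glazed tile and dried. Adult mosquitoes exposed on the surface for 30 min; percent mortality scored 24 h after contact.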

SMILES | mortality at 100 g/ha (Spodoptera frugiperda) [%] | mortality at 500 g/ha (Spodoptera frugiperda) [%] | pest or weed control at 0.004 mg (Rhipicephalus microplus [1]) [%] | pest or weed control at 0.02 mg (Rhipicephalus microplus [1]) [%] | mortality at 500 g/ha (Nezara viridula) [%] | pest or weed control at 5 µg/cm2 (Rhipicephalus microplus [2]) [%] | mortality at 20 mg/m2 [3] [%] | pest or weed control at 32 µg/disc, 100 g/ha (Diabrotica balteata) [%] | pest or weed control at 160 µg/disc, 500 g/ha (Diabrotica balteata) [%] | mortality at 4 ppm (Myzus persicae) [%] | mortality at 100 ppm (Ctenocephalides felis [4]) [%] | pest or weed control at 5 µg/cm2, 500 g/ha (Rhipicephalus sanguineus) [%] | pest or weed control at 5 µg/cm2 (Ctenocephalides felis [5]) [%] | mortality at 4 mg/m2 [6] [%] | mortality at 100 g/ha (Nezara viridula) [%] | pest or weed control at 1 µg/cm2, 100 g/ha (Rhipicephalus sanguineus) [%] | mortality at 20 mg/m2 [6] [%] | mortality at 4 mg/m2 [3] [%] | mortality at 0.8 ppm (Myzus persicae) [%]
C[C@H](NC(=O)c1cc(C(F)(F)F)cc(C(F)(F)F)c1)c1nc(C2CC2)nn1-c1ccc(C#N)cn1 [I-4] | 100 | 100 | 100 | 100 | 90 | 100 | 80 to 100 | 100 | 100 |  |  |  |  |  |  |  |  |  | 
C[C@H](NC(=O)c1cc(Cl)cc(C(F)(F)F)c1)c1nc(C2CC2)nn1-c1ccc(C#N)cn1 [I-6, 3-chloro-N-{(1S)-1-[1-(5-cyanopyridin-2-yl)-3-cyclopropyl-1H-1,2,4-triazol-5-yl]ethyl}-5-(trifluoromethyl)benzamide] | 100 | 100 | 100 | 100 | 100 | 100 | 80 to 100 | 100 | 100 |  |  |  |  |  |  |  |  |  | 
COc1nc([C@H](C)NC(=O)c2cc(Cl)cc(Cl)c2)n(-c2ccc(C#N)cn2)n1 [I-15] | 100 | 100 | 100 | 100 |  | 100 |  | 100 | 100 | 100 | 100 | 80 | 80 | 80 to 100 |  |  |  |  | 
C[C@H](NC(=O)c1cc(Cl)cc(C(F)(F)F)c1)c1nc(C(C)(C)C)nn1-c1ccc(C#N)cn1 [I-38] | 83 |  | 100 | 100 |  | 100 | 80 to 100 | 100 |  |  |  | 80 |  |  | 100 | 100 |  |  | 
C[C@H](NC(=O)c1cc(Cl)cc(C(F)F)c1)c1nc(C2CC2)nn1-c1ccc(C#N)cn1 [I-42] | 100 |  | 100 |  |  | 100 | 80 to 100 | 100 |  |  | 100 |  |  | 80 to 100 | 100 |  | 80 to 100 |  | 
C[C@H](NC(=O)c1cc(Cl)cc(SC(F)F)c1)c1nc(C2CC2)nn1-c1ccc(C#N)cn1 [I-46] | 100 |  | 100 |  |  | 100 | 80 to 100 | 100 |  |  | 100 |  |  |  | 100 |  |  |  | 
C[C@H](NC(=O)c1cc(OC(F)F)cc(OC(F)F)c1)c1nc(C2CC2)nn1-c1ccc(C#N)cn1 [I-47] | 100 |  | 100 |  |  | 100 | 80 to 100 | 80 |  |  | 90 | 80 |  | 80 to 100 | 100 | 100 |  | 80 to 100 | 
C[C@H](NC(=O)c1cc(I)cc(C(F)(F)F)c1)c1ncnn1-c1ccc(C#N)cn1 [II-46] | 100 | 100 | 100 | 100 | 100 | 100 | 80 to 100 | 100 | 100 |  | 100 | 100 |  | 80 to 100 |  | 100 | 80 to 100 | 80 to 100 | 
C[C@H](NC(=O)c1cc(Cl)cc(C(F)(F)F)c1)c1ncnn1-c1ccc(C(=O)N(C)CC(F)(F)F)cn1 [II-69] | 83 | 100 | 100 | 100 |  | 100 |  | 80 |  | 100 | 100 | 100 | 90 |  |  | 100 |  |  | 
Cc1nc([C@H](C)NC(=O)c2cc(Cl)cc(C(F)(F)C(F)(F)F)c2)n(-c2ccc(C#N)cn2)n1 [II-75] | 100 |  | 100 | 100 |  | 100 |  | 100 |  | 100 | 100 | 100 | 90 |  |  | 100 |  |  | 
C[C@H](NC(=O)c1cc(C(F)(F)F)cc(C(F)(F)F)c1)c1ncnn1-c1cc(C(=O)N(C)C)ccn1 [II-86] | 100 |  |  |  |  | 100 |  | 100 |  | 100 | 100 | 80 | 100 |  |  | 100 |  |  | 100
C[C@H](NC(=O)c1cc(Br)cc(OC(F)(F)F)c1)c1ncnn1-c1cc(C#N)ccn1 [II-107] | 100 |  | 100 |  |  | 100 |  | 100 |  | 100 | 100 | 100 | 100 |  |  | 100 |  |  | 

Reference: patent US20220274947A1, “NOVEL HETEROARYL-TRIAZOLE COMPOUNDS AS PESTICIDES” (Bayer Aktiengesellschaft, priority 2019, published 2022)
